The values that follow come from article PMC11800161 (ACS Omega, 2025).

Converted amounts (≈) assume the structure as drawn.

The subject of one data set is E. coli (ATCC- 25955). The data set is described as follows: microbe, parasite or virus in culture. Format: cell-based. As to conditions: Escherichia coli, ATCC25955.
Another data set concerns S. faecalis (MTCC- 0459). As to the kind of experiment: Broth microdilution MIC/MBC, S. faecalis. Format: cell-based, Streptococcus faecalis. The following applies: for MIC: Enterococcus faecalis, MTCC0459; for antibacterial potency relative to penicillin G (times greater): by MIC, organism not named in the sentence (values match S. faecalis). Background: In broth dilution the organism is exposed to a series of concentrations in liquid medium.

Data set [1] has as its system Bacillus pumilis (MTCC- 2296). As to the kind of experiment: Broth microdilution MIC/MBC, B. pumilis. The following applies: for potency relative to penicillin G (times greater): B. pumilis, by MIC; for MIC: Bacillus, MTCC2296. Format: cell-based.
In the next data set the target is E. coli MurA (Escherichia coli, UniProt P0A749). As to the kind of experiment: MurA enzyme inhibition assay. Format: biochemical.
Chain of E. coli MurA (P0A749 whole entry): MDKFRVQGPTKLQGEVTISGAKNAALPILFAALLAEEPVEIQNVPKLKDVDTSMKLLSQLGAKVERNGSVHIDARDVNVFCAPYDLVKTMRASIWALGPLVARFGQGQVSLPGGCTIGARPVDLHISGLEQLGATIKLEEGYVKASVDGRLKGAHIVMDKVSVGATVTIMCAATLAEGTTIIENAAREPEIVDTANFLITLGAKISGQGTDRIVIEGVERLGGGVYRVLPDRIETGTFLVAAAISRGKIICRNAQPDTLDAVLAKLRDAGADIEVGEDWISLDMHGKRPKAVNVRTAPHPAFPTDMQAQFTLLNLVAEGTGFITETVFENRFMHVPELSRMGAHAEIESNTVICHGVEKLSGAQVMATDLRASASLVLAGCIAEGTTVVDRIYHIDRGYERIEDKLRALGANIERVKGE
For data set [2], the system named is Saccharomyces cerevisiae (ATCC-9763). The data set is described as follows: Broth microdilution MIC/MFC, S. cerevisiae. The class given is cell-based. As to conditions: ATCC9763.
In data set [3] the test system is hemolytic activity of E. coli. The data set is described as follows: Hemolysin inhibition assay, E. coli. Format: cell-based. The following applies: at 75%MBC, control 100% hemolysis.
Data set [4] concerns hemolytic activity of S. faecalis. As to the kind of experiment: Hemolysin inhibition assay, S. faecalis. The class given is cell-based. As to conditions: at 75%MBC, control 100% hemolysis.
For data set [5], the system named is Candida albicans (ATCC-10231). As to the kind of experiment: Broth microdilution MIC/MFC, C. albicans. As to conditions: ATCC10231. Format: cell-based.
The subject of data set [6] is Enterobacter cloacae (ATCC- 23355). The class given is cell-based. As to conditions: E. cloacae.

With `Cc1ccc(N=Nc2c(N)nn3c(-c4ccc(C)cc4)cc(-c4ccc(OCc5ccccc5)cc4)nc23)cc1` [Compound 4b, 5-(4-(Benzyloxy)phenyl)-7-(p-tolyl)-3-(p-tolyldiazenyl)pyrazolo[1,5-a]pyrimidin-2-amine], the MIC came out at 1.95 µg/mL (≈ 3.72 µM) with E. coli (ATCC- 25955), 15.6 µg/mL (≈ 29.7 µM) in the data set with S. faecalis (MTCC- 0459) and 15.6 µg/mL (≈ 29.7 µM) in [1]. Besides, in data set [1], the “potency relative to penicillin G (times greater)” value came out at 4 fold.
The molecule `C[C@@H]1O[C@@H]1P(=O)(O)O` [fosfomycin, Fosfomycin] had an IC50 at E. coli MurA of 69.8 µM.
As for `Nc1nn2c(-c3ccco3)cc(-c3ccc(OCc4ccccc4)cc3)nc2c1N=Nc1ccc(F)cc1` [Compound 4g, 5-(4-(Benzyloxy)phenyl)-3-((4-fluorophenyl)diazenyl)-7-(furan-2-yl)pyrazolo[1,5-a]pyrimidin-2-amine], in the data set with S. faecalis (MTCC- 0459), the MIC is 1.95 µg/mL (≈ 3.87 µM) and the “antibacterial potency relative to penicillin G (times greater)” value is given as 16 times. In data set [1], the “potency relative to penicillin G (times greater)” value stood at 16 fold and the MIC is 3.91 µg/mL (≈ 7.75 µM).
`COc1ccc(N=Nc2c(N)nn3c(-c4ccc(Cl)cc4Cl)cc(-c4ccc(OCc5ccccc5)cc4)nc23)cc1` [Compound 4f, 5-(4-(Benzyloxy)phenyl)-7-(2,4-dichlorophenyl)-3-((4-methoxyphenyl)diazenyl)pyrazolo[1,5-a]pyrimidin-2-amine] came in with an MIC against S. faecalis (MTCC- 0459) of 15.6 µg/mL (≈ 26.2 µM). For the same molecule, in data set [1], the “potency relative to penicillin G (times greater)” value stood at 8 fold and the MIC was determined as 7.81 µg/mL (≈ 13.1 µM).
Regarding `CC1(C)S[C@@H]2[C@H](NC(=O)Cc3ccccc3)C(=O)N2[C@H]1C(=O)O` [Penicillin G, penicillin G, reference compound], the figures for the MIC (against S. faecalis (MTCC- 0459); in [1]) were 31.5 µg/mL (≈ 94.2 µM) and 62.5 µg/mL (≈ 187 µM), respectively.
For `Nc1nn2c(-c3ccc(Cl)cc3Cl)cc(-c3ccc(OCc4ccccc4)cc3)nc2c1N=Nc1ccc(F)cc1` [Compound 4d, 5-(4-(Benzyloxy)phenyl)-7-(2,4-dichlorophenyl)-3-((4-fluorophenyl)diazenyl)pyrazolo[1,5-a]pyrimidin-2-amine], the MIC in data set [2] is 15.6 µg/mL (≈ 26.7 µM).
With `COc1ccc(N=Nc2c(N)nn3c(-c4ccc(C)cc4)cc(-c4ccc(OCc5ccccc5)cc4)nc23)cc1` [Compound 4c, 5-(4-(Benzyloxy)phenyl)-3-((4-methoxyphenyl)diazenyl)-7-(p-tolyl)pyrazolo[1,5-a]pyrimidin-2-amine], the hemolysis in data set [3] stood at 7.1%; in data set [4], 3.3%. In addition, the MIC in the data set with E. coli (ATCC- 25955) was 1.95 µg/mL (≈ 3.61 µM); in the data set with S. faecalis (MTCC- 0459) it was 15.6 µg/mL (≈ 28.9 µM); in data set [1], 7.81 µg/mL (≈ 14.4 µM). Moreover, the “potency relative to penicillin G (times greater)” value in [1] is recorded as 8 fold.
`Cc1ccc(-c2cc(-c3ccc(OCc4ccccc4)cc3)nc3c(N=Nc4ccc(F)cc4)c(N)nn23)cc1` [Compound 4a, 5-(4-(Benzyloxy)phenyl)-3-((4-fluorophenyl)diazenyl)-7-(p-tolyl)pyrazolo[1,5-a]pyrimidin-2-amine]: in the data set on S. faecalis (MTCC- 0459), the MIC is 3.91 µg/mL (≈ 7.4 µM) and the “antibacterial potency relative to penicillin G (times greater)” value came to 8 times.
The like results for `Cc1ccc(N=Nc2c(N)nn3c(-c4ccc(Cl)cc4Cl)cc(-c4ccc(OCc5ccccc5)cc4)nc23)cc1` [Compound 4e, 5-(4-(Benzyloxy)phenyl)-7-(2,4-dichlorophenyl)-3-(p-tolyldiazenyl)pyrazolo[1,5-a]pyrimidin-2-amine] were, in that order, 7.81 µg/mL (≈ 13.5 µM) and 4 times.
`Cc1ccc(N=Nc2c(N)nn3c(-c4ccco4)cc(-c4ccc(OCc5ccccc5)cc4)nc23)cc1` [Compound 4h, 5-(4-(Benzyloxy)phenyl)-7-(furan-2-yl)-3-(p-tolyldiazenyl)pyrazolo[1,5-a]pyrimidin-2-amine]: the MIC with S. faecalis (MTCC- 0459) was determined as 15.6 µg/mL (≈ 31.2 µM); in [2] it was 15.6 µg/mL (≈ 31.2 µM); in data set [1] it was 3.91 µg/mL (≈ 7.81 µM). For the same molecule, the “potency relative to penicillin G (times greater)” value in [1] stood at 16 fold.
In turn, `COc1ccc(N=Nc2c(N)nn3c(-c4ccco4)cc(-c4ccc(OCc5ccccc5)cc4)nc23)cc1` [Compound 4i, 5-(4-(Benzyloxy)phenyl)-7-(furan-2-yl)-3-((4-methoxyphenyl)diazenyl)pyrazolo[1,5-a]pyrimidin-2-amine] came in with an MIC in data set [5] of 15.6 µg/mL (≈ 30.2 µM). The molecule further came in with an MBC/MIC in data set [6] of 8. Also, in data set [1], the “potency relative to penicillin G (times greater)” value was 4 fold and the MIC was 15.6 µg/mL (≈ 30.2 µM).

One may read the IC50 as the point on the concentration scale where inhibition reaches its midpoint. Read a low IC50 as greater potency in that assay.
